This passage reports IC50 results from US20260200919A1, “SUBSTITUTED AMINOPYRIDINE COMPOUNDS AND METHODS OF TREATING DISEASE USING SAME” (Atavistik Bio, Inc., priority 2023, published 2026).

The structures appear in SMILES notation.

For test [1], the target named is T1, human recombinant kinase full-length wildtype AKT1 (Homo sapiens, UniProt P31749).
T1 construct: Purified human recombinant kinase full-length wildtype AKT1 was expressed in insect cells; made in house; host or cells: insect cells
Briefly: AKT1 kinase assay (wildtype, TR-FRET, Lance). Conditions: 0.6 nM wildtype AKT1, 50 nM Ulight-CREBtide, either 50 μM ATP or 2 mM ATP (not specified which), 60 min at RT. It is filed as biochemical. A digest of the protocol: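 Insect-cell-expressed AKT1, activated in vitro by PDPK1, was used at 0.6 nM with 50 nM Ulight-CREBtide and 50 μM or 2 mM ATP in 50 mM HEPES pH 7.5, 1% DMSO, over a 10-point dose response.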
A general note: TR-FRET usually uses a lanthanide donor and a delayed reading to cut background.

Test [2] deals with T2, human recombinant kinase full-length AKT1 E17K (Homo sapiens, UniProt P31749, E17K).
T2 construct: Purified human recombinant kinase full-length AKT1 E17K was expressed in insect cells; made in house; host or cells: insect cells
In words: AKT1 E17K kinase assay (TR-FRET, Lance). It counts as biochemical. Conditions: 0.6 nM AKT1 E17K, 50 nM Ulight-CREBtide, either 50 μM ATP or 2 mM ATP (not specified which), 60 min at RT. The essentials: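 Full-length human AKT1 E17K (insect cell-expressed, PDPK1-activated; 0.6 nM) with 50 nM ULight-CREBtide in HEPES pH 7.5 with MgCl2 and DTT. ATP at 50 μM or 2 mM, 1% DMSO, 10-point dose response, 60 min at RT.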

T1 sequence (P31749 whole entry): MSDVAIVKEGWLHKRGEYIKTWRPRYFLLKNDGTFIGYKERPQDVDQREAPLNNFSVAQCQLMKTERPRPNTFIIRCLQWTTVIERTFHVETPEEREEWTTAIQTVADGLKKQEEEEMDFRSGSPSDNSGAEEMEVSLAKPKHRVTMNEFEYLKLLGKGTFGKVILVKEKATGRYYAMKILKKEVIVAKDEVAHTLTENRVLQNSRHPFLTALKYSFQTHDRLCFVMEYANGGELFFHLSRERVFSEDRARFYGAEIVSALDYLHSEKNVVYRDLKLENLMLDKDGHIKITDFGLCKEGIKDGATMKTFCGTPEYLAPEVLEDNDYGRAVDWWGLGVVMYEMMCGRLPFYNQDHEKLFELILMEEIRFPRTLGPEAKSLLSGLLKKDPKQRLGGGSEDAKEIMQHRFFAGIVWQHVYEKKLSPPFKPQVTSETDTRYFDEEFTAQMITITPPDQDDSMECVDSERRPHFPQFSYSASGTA
T2 sequence (P31749 whole entry E17K): as the sequence (P31749 whole entry) above, with E17K counted along it

Turning to `COc1cc(CN2CC(c3ccc(-n4c(-c5cccnc5N)nc5ccc(-c6ccccc6)nc54)cc3)C2)ccc1C(=O)O` [Compound 184, 4-((3-(4-(2-(2-aminopyridin-3-yl)-5-phenyl-3H-imidazo[4,5-b]pyridin-3-yl)phenyl)azetidin-1-yl)methyl)-2-methoxybenzoic acid], the values for the IC50 in test [1] and in test [2] were under 0.5 µM and under 0.05 µM, respectively.
The matching figures for `Nc1ncccc1-c1nc2ccc(-c3ccccc3)nc2n1-c1ccc(C2CN(Cc3cc(O)c(C(=O)O)c(F)c3)C2)cc1` [Compound 185, 4-((3-(4-(2-(2-aminopyridin-3-yl)-5-phenyl-3H-imidazo[4,5-b]pyridin-3-yl)phenyl)azetidin-1-yl)methyl)-2-fluoro-6-hydroxybenzoic acid]: under 0.5 µM and under 0.05 µM.
